Measurements from patent US20170147743A1, “RAPID IDENTIFICATION OF PHARMACOLOGICAL TARGETS AND ANTI-TARGETS FOR DRUG DISCOVERY AND REPURPOSING” (UNIVERSITY OF MIAMI, priority 2015, published 2017).

Legend:
[1] = tested on: representative anti-target kinases; assay: Target/anti-target activity matrix from kinase profiling; type: biochemical; conditions: FIG. 3B matrix
Protocol: (§1) Activity Profiling of Screened Kinase Inhibitors. In vitro profiling of kinase inhibitors against a panel of 190 kinases was performed. Out of bound values were cropped, whereby values below 0% were adjusted to 0%, and values above 100% were adjusted to 100%.
(§2) FIG. 3B illustrates a resultant target-anti-target activity matrix developed by the identification system (e.g., at process 114). The target/anti-target matrix identifies protein target groups separately from protein anti-target groups, where each group type may be ranked according to various factors, such as biologic activity and inhibition bias. Engagement of the protein targets in the matrix promotes a biological activity; and engagement of the protein anti-targets in the matrix impedes the biological activity. In the particular example of FIG. 3B, representative protein kinases for each kinase group and the compounds that inhibit at least one member in the group by ≧10% are shown. […] Compounds are arranged top to bottom in order of decreasing maximum % NTL (right-hand color scale). […] RO0480500-002 accordingly produced % NTL up to 400%, well above the % NTL of any of the other compound. […]

[2] = tested on: representative target kinases; assay: as above; type: biochemical; conditions: FIG. 3B matrix; seven targets
Protocol: as §1, §2

[3] = tested on: rat embryonic (E18) hippocampal neurons; assay: Neurite outgrowth screening assay with hippocampal neurons; type: cell-based; conditions: neurite total length as percentage of control; for NTL_32 (neurite outgrowth, % NTL): concentration 32 (unit not given); for NTL_160 (neurite outgrowth, % NTL): concentration 160 (unit not given); for NTL_800 (neurite outgrowth, % NTL): concentration 800 (unit not given); for NTL_4000 (neurite outgrowth, % NTL): concentration 4000 (unit not given); for NTL_20000 (neurite outgrowth, % NTL): concentration 20000 (unit not given)
Excerpt: Neurite Outgrowth Screening Assay with Hippocampal Neurons. Kinase inhibitor libraries were screened in a neurite outgrowth assay. Compounds were screened on rat embryonic (E18) hippocampal neurons cultured for 2 DIV on poly-D-lysine. Plates were fixed, immunostained, and imaged. Screened compounds were classified based on their effects on neurite total length, expressed as percentage of control (% NTL), which served as the biological activity referenced in FIG. 1, for this example. Hits were defined as compounds whose biologic activity (% NTL) reached at least 130% in two independent experiments (hits: % NTL 130; non-hits: % NTL<130). That is, in this example an NTL of 130 was used as the threshold measure (see, e.g., FIGS. 8 and 9). […] A stratification (assurance) step was performed by eliminating from subsequent analysis compounds that had biologic activity within 1 standard deviation of the hit threshold (130±15) (see, e.g., FIG. 6A). Compounds that reduced viable cell count (biologic activity) by more than 40% at concentrations below 800 nM were considered to be toxic and also excluded from subsequent analysis.

Row | Compound | inhibition of representative anti-target kinases [1] | inhibition of representative target kinases [2] | NTL_32 (neurite outgrowth, % NTL) [3] [%] | NTL_160 (neurite outgrowth, % NTL) [3] [%] | NTL_800 (neurite outgrowth, % NTL) [3] [%] | NTL_4000 (neurite outgrowth, % NTL) [3] [%] | NTL_20000 (neurite outgrowth, % NTL) [3] [%]
1 | COc1cc(N2CCC(N3CCN(C)CC3)CC2)ccc1Nc1ncnc(Nc2ccccc2S(=O)(=O)C(C)C)n1 [ASP3026] | does not inhibit any | inhibits the two target kinases | – | – | – | – | –
2 | c1ccc(-c2cnc(Nc3ccc(OCCN4CCCC4)cc3)s2)cc1 [Flt-3 Inhibitor III] | – | – | 227.0293 | 250.8023 | 291.5283 | 105.129 | 48.44
3 | NS(=O)(=O)c1cccc(N/C=C2\C(=O)Nc3ccc(S(=O)(=O)Cc4c(Cl)cccc4Cl)cc32)c1 [GSK398099A] | – | – | 100.7527 | 86.99 | 91.2121 | 234.4329 | 357.738
4 | NC[C@H](CC1CCCCC1)NC(=O)c1ccc(-c2ccnc3[nH]ccc23)s1 [GSK1581428A] | – | – | 229.399 | 335.5001 | 262.488 | 92.84 | 36.79
5 | N#Cc1ccc(-c2cc(-c3c[nH]nc3-c3ccccn3)ccn2)cc1 [GW693028X] | – | – | 114.3254 | 101.7908 | 99.07 | 110.3241 | 296.1224
6 | N#CC(=C(N)Sc1ccc(N)cc1)c1ccccc1C(F)(F)F [MEK1/2 Inhibitor] | – | – | 109.3381 | 101.2957 | 104.668 | 120.1756 | 286.068
7 | Cl.O=S(=O)(c1cccc2c(I)cccc12)N1CCCNCC1 [ML-7, Hydrochloride] | – | – | 193.8632 | 288.4679 | 285.3279 | 269.3169 | 70.23
